Earlier results in PMC3212850 (ACS Medicinal Chemistry Letters, 2011).

Test system: cell lines

apratoxin B
activity relative to apratoxin A: reduces activity
